Values after ≈ are worked out from the molar mass of the structure shown.
Assays:
[1] = Anatomic pathology (heart and kidney histopathology) in mice; format: in vivo, CD-1 mice; settings: 20 mg/kg intravenously daily for 9 days, microscopic histopathology on day 10
Procedure, shortened: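 Histopathology on H&E-stained, paraffin-embedded sections, subjectively scored (slight, mild, moderate, marked, severe) relative to untreated controls. Dosing: glycopeptide antibiotics 20 mg/kg intravenously once daily ×9 days in 20-day-old CD-1 mice, n=5 per group including vehicle.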

[2] = system: Streptococcus pneumoniae (GC 1894), penicillin resistant strain; experiment: Acute lethal infection in mice (ED50); format: in vivo; settings: female CD-1 mice, intraperitoneal challenge, intravenous dose 30 min. after infection, 7 day survival ratios
Procedure, shortened: (§1)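 Groups of five female CD-1 mice per dose got intravenous antibiotic in saline or 5% dextrose half an hour after intraperitoneal infection sufficient to kill controls within 24-48 hr. Seven-day survival data from three experiments were combined to derive ED50.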

[3] = system: Staphylococcus aureus-SMITH (GC 4543); experiment: Acute lethal infection in mice (ED50); format: in vivo; settings: female CD-1 mice, intraperitoneal challenge, intravenous dose 30 min. after infection, 7 day survival ratios
Procedure, shortened: as §1

[4] = system: Enterococcus faecalis (GC 6189), vancomycin resistant strain; experiment: Acute lethal infection in mice (ED50); format: in vivo; settings: female CD-1 mice, intraperitoneal challenge, intravenous dose 30 min. after infection, 7 day survival ratios
Procedure, shortened: as §1

Staphylococcus sp. = experiment: In vitro antibacterial evaluation: minimum inhibitory concentration (MIC), broth dilution method; format: cell-based; settings: for MIC Staphylococcus aureus (ATCC 29213): strain ATCC 29213; for MIC Staphylococcus aureus (GC 1131): strain GC 1131; for MIC Staphylococcus aureus (GC 4541): strain GC 4541; for MIC Staphylococcus aureus (GC 4542): strain GC 4542; for MIC Staphylococcus aureus-SMITH (GC 4543): strain GC 4543; for MIC Staphylococcus aureus (GC 4544): strain GC 4544; for MIC Staphylococcus aureus (GC 4545): strain GC 4545; for MIC Staphylococcus haemolyticus (GC 4546): strain GC 4546; for MIC Coagulase Negative Staphylococcus (GC 4547): strain GC 4547; for MIC Coagulase Negative Staphylococcus (GC 4548): strain GC 4548; for MIC Coagulase Negative Staphylococcus (GC 4549): strain GC 4549; for MIC Coagulase Negative Staphylococcus (GC 4551): strain GC 4551; for MIC Coagulase Negative Staphylococcus (GC 6257): strain GC 6257; for MIC Coagulase Negative Staphylococcus (ID-3941): strain ID-3941
Procedure, shortened: (§2)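 Susceptibility determined by NCCLS-recommended broth dilution (M7-A2), Muller-Hinton II […]. Concentration span 64-0.06 μg/mL, inoculum 5×10^5 CFU/mL. Isolates include strains resistant to methicillin, penicillin and/or vancomycin.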

Escherichia coli = experiment: as above; format: cell-based; settings: 5×10^5 CFU/mL, 18 hours at 35° C.
Procedure, shortened: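 Inoculum: 5×10^5 CFU/mL. Range: 64-0.06 μg/mL. Medium: Muller-Hinton II […]; NCCLS M7-A2 broth dilution. Endpoint: lowest concentration inhibiting growth. Strains include methicillin-, penicillin- and/or vancomycin-resistant clinical isolates.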

Streptococcus sp. = experiment: as above; format: cell-based; settings: broth dilution, 5×10^5 CFU/mL, 18 hours at 35° C.
Procedure, shortened: as §2

Enterococcus sp. = experiment: as above; format: cell-based; settings: broth dilution, 5×10^5 CFU/mL, 18 hours at 35° C.
Procedure, shortened: as §2

[5] = format: in vivo; settings: mice, 20 mg/kg intravenously daily for 9 days, serum on day 10
Experimental: 20-day-old CD-1 mice were divided into a vehicle control group (5 mice) and a treatment group (5 mice). Samples of glycopeptide antibiotics were administered at 20 mg/kg intravenously daily for 9 days. Animals were necropsied on day 10 Sera were analyzed for BUN (blood urea nitrogen), creatinine, AST (aspartic aminotransferase), and ALT (alanine aminotransferase) by routine, standard, automated methods using an Hitachi 747 chemistry analyzer.

[6] = broth dilution, 18 hours at 35° C.

## CC(c1ccccc1)C1NC(=O)CNC(=O)C(CO)NC(=O)C(C(O)C2CNC(=N)N2C2OC(CO)C(O)C(O)C2O)NC(=O)C(C(O)C2CNC(=N)N2)NC(=O)C(Cc2ccc(OC3OC(CO)C(OC4OC5COC(c6ccccc6)OC5C(O)C4O)C(O)C3O)cc2)NC1=O (stereo not drawn) [Example 104, Cyclo[glycyl-β-methylphenylalanyl-O-[4-O-(4,6-O-benzylidenehexopyranosyl)hexopyranosyl]-tyrosyl-3-(2-iminoimidazolidin-4-yl)seryl-3-(3-hexopyranosyl-2-iminoimidazolidin-4-yl)-serylseryl]]
[1]
  Anatomical Pathology (Day 10), Heart: +++
  Anatomical Pathology (Day 10), Kidney: +++
[2]
  median effective dose (ED50), Streptococcus pneumoniae (GC 1894): 0.22 mg/kg
[3]
  median effective dose (ED50), Staphylococcus aureus-SMITH (GC 4543): 0.19 mg/kg
[4]
  median effective dose (ED50), Enterococcus faecalis (GC 6189): 0.39-0.63
Staphylococcus sp.
  MIC Staphylococcus aureus (ATCC 29213): 1 µg/mL (≈ 0.723 µM)
  MIC Staphylococcus aureus (GC 1131): 2 µg/mL (≈ 1.45 µM)
  MIC Staphylococcus aureus (GC 4541): 1 µg/mL (≈ 0.723 µM)
  MIC Staphylococcus aureus (GC 4542): 0.5 µg/mL (≈ 0.361 µM)
  MIC Staphylococcus aureus (GC 4544): 1 µg/mL (≈ 0.723 µM)
  MIC Staphylococcus aureus (GC 4545): 0.5 to 1 µg/mL
  MIC Staphylococcus haemolyticus (GC 4546): 0.5 µg/mL (≈ 0.361 µM)
  MIC Coagulase Negative Staphylococcus (GC 4547): 1 µg/mL (≈ 0.723 µM)
  MIC Coagulase Negative Staphylococcus (GC 4548): 0.5 to 1 µg/mL
  MIC Coagulase Negative Staphylococcus (GC 4549): 0.5 µg/mL (≈ 0.361 µM)
  MIC Coagulase Negative Staphylococcus (GC 4551): 1 µg/mL (≈ 0.723 µM)
  MIC Coagulase Negative Staphylococcus (GC 6257): 0.5 µg/mL (≈ 0.361 µM)
Staphylococcus sp.; strain GC 3051
  MIC Staphylococcus aureus (GC 3051): 1 µg/mL (≈ 0.723 µM)
Staphylococcus sp.; strain GC 3053
  MIC Staphylococcus aureus (GC 3053): 1 µg/mL (≈ 0.723 µM)
Staphylococcus sp.; 18 hours at 35° C.
  MIC Staphylococcus aureus-SMITH (GC 4543): 0.5 to 1 µg/mL
Staphylococcus sp.; [6]
  MIC Staphylococcus aureus-SMITH (GC 4543): 0.5 to 1 µg/mL
  MIC Staphylococcus haemolyticus (GC 4546): 0.5 µg/mL (≈ 0.361 µM)
  MIC Coagulase Negative Staphylococcus (GC 4547): 1 µg/mL (≈ 0.723 µM)
  MIC Coagulase Negative Staphylococcus (GC 4548): 0.5 to 1 µg/mL
  MIC Coagulase Negative Staphylococcus (GC 4549): 0.5 µg/mL (≈ 0.361 µM)
  MIC Coagulase Negative Staphylococcus (GC 4551): 1 µg/mL (≈ 0.723 µM)
  MIC Coagulase Negative Staphylococcus (GC 6257): 0.5 µg/mL (≈ 0.361 µM)
Escherichia coli
  MIC Escherichia coli (GC 4560): 0.5 to 1 µg/mL
Streptococcus sp.
  MIC Streptococcus pneumoniae (GC 1894): <0.12 µg/mL
  MIC Streptococcus pneumoniae (GC 4565): <0.12 µg/mL
  MIC Streptococcus pneumonine (ATCC 6301): <0.12 µg/mL
  MIC Streptococcus pyogenes (GC 4563): <0.12 µg/mL
Enterococcus sp.
  MIC Enterococccus avium (GC 4558): 2 to 4 µg/mL
  MIC Enterococccus faecalis (ATCC 29212): 2 to 4 µg/mL
  MIC Enterococccus faecalis (GC 2691): 4 µg/mL (≈ 2.89 µM)
  MIC Enterococccus faecalis (GC 3059): 4 µg/mL (≈ 2.89 µM)
  MIC Enterococccus faecalis (GC 4552): 4 µg/mL (≈ 2.89 µM)
  MIC Enterococccus faecalis (GC 4553): 4 µg/mL (≈ 2.89 µM)
  MIC Enterococccus faecalis (GC 4554): 4 µg/mL (≈ 2.89 µM)
  MIC Enterococccus faecalis (GC 6189): 2 µg/mL (≈ 1.45 µM)
  MIC Enterococccus faecium (GC 2243): 2 µg/mL (≈ 1.45 µM)
  MIC Enterococccus faecium (GC 4556): 2 to 4 µg/mL
  MIC Enterococccus faecium (GC 4557): 2 µg/mL (≈ 1.45 µM)
  MIC Enterococcus faecalis (GC 2242): 2 µg/mL (≈ 1.45 µM)
[5]
  Clinical Chemistry (Day 10) % of Control, AST: +87%
  Clinical Chemistry (Day 10) % of Control, Creatinine: +65%

## CC(c1ccccc1)C1NC(=O)CNC(=O)C(CO)NC(=O)C(C(O)C2CNC(=N)N2C2OC(CO)C(O)C(O)C2O)NC(=O)C(C(O)C2CNC(=N)N2)NC(=O)C(Cc2ccc(OC3OC(CO)C(OC4OC5COC(C6CCCCC6)OC5C(O)C4O)C(O)C3O)cc2)NC1=O (stereo not drawn) [Example 112]
[2]
  median effective dose (ED50), Streptococcus pneumoniae (GC 1894): 0.02 mg/kg
[3]
  median effective dose (ED50), Staphylococcus aureus-SMITH (GC 4543): 0.07-0.08
[4]
  median effective dose (ED50), Enterococcus faecalis (GC 6189): 0.19-0.28
Staphylococcus sp.
  MIC Staphylococcus aureus (ATCC 29213): 1 µg/mL (≈ 0.72 µM)
  MIC Staphylococcus aureus (GC 1131): 0.5 to 1 µg/mL
  MIC Staphylococcus aureus (GC 4541): 1 µg/mL (≈ 0.72 µM)
  MIC Staphylococcus aureus (GC 4542): 1 µg/mL (≈ 0.72 µM)
  MIC Staphylococcus aureus (GC 4544): 0.5 to 2 µg/mL
  MIC Staphylococcus aureus (GC 4545): 1 to 2 µg/mL
  MIC Staphylococcus haemolyticus (GC 4546): 1 µg/mL (≈ 0.72 µM)
  MIC Coagulase Negative Staphylococcus (GC 4547): 0.5 to 1 µg/mL
  MIC Coagulase Negative Staphylococcus (GC 4548): 0.5 to 1 µg/mL
  MIC Coagulase Negative Staphylococcus (GC 4549): 0.5 to 1 µg/mL
  MIC Coagulase Negative Staphylococcus (GC 4551): 0.5 to 1 µg/mL
  MIC Coagulase Negative Staphylococcus (GC 6257): 1 µg/mL (≈ 0.72 µM)
  MIC Coagulase Negative Staphylococcus (ID-3941): 0.5 µg/mL (≈ 0.36 µM)
Staphylococcus sp.; [6]
  MIC Staphylococcus aureus (ATCC 29213): 1 µg/mL (≈ 0.72 µM)
  MIC Staphylococcus aureus (GC 1131): 0.5 to 1 µg/mL
  MIC Staphylococcus aureus (GC 4541): 1 µg/mL (≈ 0.72 µM)
  MIC Staphylococcus aureus (GC 4542): 1 µg/mL (≈ 0.72 µM)
  MIC Staphylococcus aureus-SMITH (GC 4543): 0.5 to 1 µg/mL
  MIC Staphylococcus aureus (GC 4544): 0.5 to 2 µg/mL
  MIC Staphylococcus aureus (GC 4545): 1 to 2 µg/mL
  MIC Staphylococcus haemolyticus (GC 4546): 1 µg/mL (≈ 0.72 µM)
  MIC Coagulase Negative Staphylococcus (GC 4547): 0.5 to 1 µg/mL
  MIC Coagulase Negative Staphylococcus (GC 4548): 0.5 to 1 µg/mL
  MIC Coagulase Negative Staphylococcus (GC 4549): 0.5 to 1 µg/mL
  MIC Coagulase Negative Staphylococcus (GC 4551): 0.5 to 1 µg/mL
  MIC Coagulase Negative Staphylococcus (GC 6257): 1 µg/mL (≈ 0.72 µM)
  MIC Coagulase Negative Staphylococcus (ID-3941): 0.5 µg/mL (≈ 0.36 µM)
Staphylococcus sp.; 18 hours at 35° C.
  MIC Staphylococcus aureus-SMITH (GC 4543): 0.5 to 1 µg/mL
Escherichia coli
  MIC Escherichia coli (ATCC 25922): 32 µg/mL (≈ 23 µM)
  MIC Escherichia coli (GC 4559): >16 µg/mL
  MIC Escherichia coli (GC 4560): 1 µg/mL (≈ 0.72 µM)
Streptococcus sp.
  MIC Streptococcus agalactiae (GC 4564): <0.12 µg/mL
  MIC Streptococcus pneumoniae (GC 4565): <0.12 µg/mL
  MIC Streptococcus pyogenes (GC 4563): <0.12 µg/mL
  MIC Streptococcus pyogenes (ID-3187): 0.5 µg/mL (≈ 0.36 µM)
Enterococcus sp.
  MIC Enterococccus avium (GC 4558): 2 µg/mL (≈ 1.44 µM)
  MIC Enterococccus faecalis (ATCC 29212): 2 µg/mL (≈ 1.44 µM)
  MIC Enterococccus faecalis (GC 2691): 2 µg/mL (≈ 1.44 µM)
  MIC Enterococccus faecalis (GC 3059): 2 µg/mL (≈ 1.44 µM)
  MIC Enterococccus faecalis (GC 4552): 2 µg/mL (≈ 1.44 µM)
  MIC Enterococccus faecalis (GC 4553): 2 to 4 µg/mL
  MIC Enterococccus faecalis (GC 4554): 2 µg/mL (≈ 1.44 µM)
  MIC Enterococccus faecalis (GC 6189): 2 µg/mL (≈ 1.44 µM)
  MIC Enterococccus faecium (GC 2243): 1 to 2 µg/mL
  MIC Enterococccus faecium (GC 4556): 2 µg/mL (≈ 1.44 µM)
  MIC Enterococccus faecium (GC 4557): 0.5 to 2 µg/mL
  MIC Enterococcus faecalis (GC 2242): 1 to 2 µg/mL
